Literature values as cited in patent publication US20220160890A1, “SURVIVAL-TARGETING CHIMERIC (SURTAC) MOLECULES” (Locki Therapeutics Limited, priority 2019, published 2022).

What was measured:
[1] = molecular target: T1, p53 (Homo sapiens, UniProt P04637)
T1 construct: various tumor cells lines expressing wild-type p53

[2] = molecular target: T1, p53; remark: listed apart in the source
[3] = system: tumor cells lines expressing wild-type p53; conditions: tumor cell lines expressing wild-type p53
[4] = molecular target: p53-HDM-2 interaction (Homo sapiens, UniProt P04637); conditions: in vitro and in vivo
Chain of p53-HDM-2 interaction (P04637 whole entry): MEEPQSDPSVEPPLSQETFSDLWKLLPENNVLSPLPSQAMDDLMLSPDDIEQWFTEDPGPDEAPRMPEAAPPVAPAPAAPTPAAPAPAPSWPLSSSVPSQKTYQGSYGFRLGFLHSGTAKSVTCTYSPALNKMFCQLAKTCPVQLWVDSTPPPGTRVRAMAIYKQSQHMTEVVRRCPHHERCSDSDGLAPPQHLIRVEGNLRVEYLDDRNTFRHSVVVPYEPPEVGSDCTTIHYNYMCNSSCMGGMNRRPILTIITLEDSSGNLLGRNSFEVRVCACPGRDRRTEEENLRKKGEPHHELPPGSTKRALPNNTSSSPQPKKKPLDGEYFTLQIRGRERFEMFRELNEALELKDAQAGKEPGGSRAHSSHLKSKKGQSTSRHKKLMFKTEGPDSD

T1 sequence (P04637 whole entry): as above

binding to p53 [1]: binds to p53 | accumulation of p53 in tumor cells [2]: induces its accumulation in tumor cells | p53-HDM-2 interaction [4]: prevents p53-HDM-2 interaction
SMILES: OCc1ccc(-c2ccc(-c3ccc(CO)s3)o2)s1 [RITA, 2,5-bis(5-hydroxymethyl-2-thienyl)furan]
apoptosis [3]: massive apoptosis | expression of p53 target genes [3]: induced expression of p53 target genes
